Patent publication US20230165870A1, “6,8-dioxa-3-azabicyclo[3.2.l]Octane Carboxylic Acids And Their Derivatives For Use In The Treatment Of Inflammations” (MINERVA S.R.L., priority 2020, published 2023)
Structures can show the parent of a compound that is named as a salt.

Columns and labels:
Assay type in all cases: cell-based
miR-101 [1] = assay: Expression of miR-101 in human monocytes stimulated with LPS (Real-time PCR)
Procedure: In order to study the effect of MT8 on the activity of miR-101 in the pro-inflammatory setting, human monocytes isolated from buffy coat were stimulated with 1 µg/ml of LPS in the presence or absence of MT8 at the final concentration of 1 0 µM. After 60 minutes, the cells were lysed in TRIzol for the extraction of total RNA, which was then used for the quantification of miR-101 by Real-time PCR. […] The quantitative determination was performed using the 5 s ribosomal RNA gene as housekeeping and the relative increase calculated applying the 2^-ΔCt method.

ADAR1 = assay: Activation of the homodimeric complex of ADAR1 in HEK-293 TrkA cells (immunoprecipitation, Western Blot, densitometry); details: serum-free 18 hours, 10 µM MT8, 60 minutes, FIG. 2
Procedure: In order to study the effect of the MT8 compound on the ADAR1 enzyme, HEK-293 TrkA cells were cultured in serum-free medium for 18 hours and incubated with or without 10 µM of MT8 for another 60 minutes. The cells were then lysed in RIPA buffer (50 mM Tris-HCI, pH 7.4; 150 mM NaCl; 2 mM EDTA; 1 mM NaF; 1 mM sodium orthovanadate, 1% NP-40) and the proteins immunoprecipitated with Anti-ADAR1 antibody and subjected to biochemical analysis by Western Blot. Briefly, 500 µg of total protein was immunoprecipitated using a specific Anti-ADAR1 antibody. The immunoprecipitated product was loaded onto polyacrylamide gel and transferred onto the PVDF membrane. The membrane was then incubated with specific anti-ADAR1 antibodies for signal detection. The analysis allowed to highlight the presence of homodimeric complexes ADAR1/ADAR1 and of the monomeric forms of ADAR1 p150 and p110. The quantitative determination of the homodimer complex of ADAR1, performed by densitometry, was expressed as the ratio between the density of the band of the homodimer ADAR1/ADAR1 and that of the monomer ADAR1 p110.

[2] = system: human monocytes stimulated with LPS; assay: Production of IL-1β, TNF-α and IL-6 in human monocytes stimulated with LPS (Luminex multiplex assay); details: 50 ng/ml LPS, MT8 10 or 30 µM, 18 hours
Procedure: (§1) LipoPoliSaccharide (LPS) is an endotoxin that induces a strong immune reaction. In the presence of LPS, immune system cells such as monocytes and dendritic cells react by producing high amounts of inflammatory cytokines such as IL-1β, TNFα and IL-6. To test the ability of MT8 to modulate the production of these cytokines, human monocytes (isolated from buffy coat using anti-CD14 antibody) and human monocytes-derived dendritic cells (MDCs) were cultured at 10^6 cells/ml in complete medium and stimulated with 50 ng/ml of LPS, in the presence or absence of MT8 at a concentration of 10 or 30 µM. After 18 hours of incubation, the supernatants of both cell types were collected and the production of IL-1β, TNF-α, and IL-6 was evaluated by Luminex multiplex assay technology. […] In particular, MT8 was able to decrease the amount of IL-1β in a dose-dependent manner in both monocytes and dendritic cells. In the latter, the reduction recorded was over 50% (FIG. 1B), while in monocytes the reduction was about 17% (FIG. 1A). In any case, this reduction is statistically significant. Similar results were obtained regarding the production of TNF-α which, in the presence of MT8, is reduced by about 17% in monocytes (FIG. 1C) and by 19% in dendritic cells (FIG. 1D). Again, the reduction observed in the presence of MT8 is statistically significant. […] Also, in the latter case the reduction is statistically significant.

miR-101 [3] = assay: miR-101 expression levels in HEK-293 TrkA cells following ADAR1 knock-down (Real-time PCR); details: 10 µM MT8, 60 minutes, FIG. 4
Procedure: In order to study the effect of MT8 on miR-101 regulatory mechanisms under metabolic stress conditions, HEK-293 TrkA cells were transfected with ADAR1-specific siRNA or control siRNA (scrambled) at the final concentration of 50 nM. After 48 hours, the cells were incubated in serum-free medium for 18 hours and stimulated with MT8 at a concentration of 10 µM for a further 60 minutes. The cells were lysed with TRIzol for the extraction of total RNA, used for the assay of miR-101 by Real Time PCR. The quantitative determination of miR-101 was performed using the 5 s ribosomal RNA gene as the housekeeping gene and the relative increase calculated applying the 2^-ΔCt method.

[4] = system: human dendritic cells stimulated with LPS; assay: Production of IL-1β, TNF-α and IL-6 in human monocytes-derived dendritic cells stimulated with LPS (Luminex multiplex assay); details: 50 ng/ml LPS, MT8 10 or 30 µM, 18 hours
Procedure: as §1

## O=C(O)[C@H]1O[C@H]2O[C@@H]1C(=O)N(Cc1ccccc1)[C@@H]2Cc1ccccc1 [MT8, (1S, 4R, 5R, 7S) -3,4-dibenzyl-2-oxo-6,8-dioxa-3-azabicyclo[3.2.1]octane-7-carboxylic acid L-lysine Salt]
miR-101 [1]; cellular and tissue systems exposed to MT8
  time of exposure until decrease of miR-101: ≤ 1 h
miR-101 [1]; human monocytes, 1 µg/ml LPS, MT8 1 0 µM, 60 minutes, FIG. 3
  miR-101 expression level compared to monocytes treated with LPS alone: strong decrease
ADAR1
  homodimeric (active) form of ADAR1, ratio homodimer ADAR1/ADAR1 to monomer ADAR1 p110, compared to untreated cells: high increase
[2]; FIG. 1A
  reduction of IL-1β production: about 17%
[2]; FIG. 1C
  reduction of TNF-α production: about 17%
[2]; FIG. 1E
  reduction of IL-6 production: about 70%
miR-101 [3]; ADAR1-specific siRNA 50 nM
  ability to decrease miR-101 expression in cells transfected with specific siRNA for ADAR1: not
miR-101 [3]; control (scrambled) siRNA 50 nM
  miR-101 expression level in scrambled siRNA-transfected cells: marked decrease
[4]; FIG. 1B
  reduction of IL-1β production: over 50%
[4]; FIG. 1D
  reduction of TNF-α production: 19%
[4]; FIG. 1F
  reduction of IL-6 production: about 65%
